Target: human PAD4 (Homo sapiens (Human), UniProt Q9UM07)
Test: In Vitro PAD4 BAEE Biochemical Assay
Settings: geometric mean of multiple experiments
Summary of the method: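 Recombinant human PAD4 (His-SUMO tag removed, E. coli-expressed), 5 nM, preincubated with compound and 2 mM CaCl2 30 min at 25 °C in MOPS pH 7.6 with DTT; 3 mM BAEE added for 2 h at 25 °C, EDTA stop. Released ammonia detected by o-phthalaldehyde/DTT fluorescence (ex 405, em 535 nm).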

[1] = human PAD4, BAEE substrate, 5 nM PAD4, 2 mM calcium chloride, 3 mM BAEE
[2] = recombinant PAD4 5 nM, 2 mM calcium chloride, 3 mM BAEE substrate

Sequence of human PAD4 (Q9UM07 2-663): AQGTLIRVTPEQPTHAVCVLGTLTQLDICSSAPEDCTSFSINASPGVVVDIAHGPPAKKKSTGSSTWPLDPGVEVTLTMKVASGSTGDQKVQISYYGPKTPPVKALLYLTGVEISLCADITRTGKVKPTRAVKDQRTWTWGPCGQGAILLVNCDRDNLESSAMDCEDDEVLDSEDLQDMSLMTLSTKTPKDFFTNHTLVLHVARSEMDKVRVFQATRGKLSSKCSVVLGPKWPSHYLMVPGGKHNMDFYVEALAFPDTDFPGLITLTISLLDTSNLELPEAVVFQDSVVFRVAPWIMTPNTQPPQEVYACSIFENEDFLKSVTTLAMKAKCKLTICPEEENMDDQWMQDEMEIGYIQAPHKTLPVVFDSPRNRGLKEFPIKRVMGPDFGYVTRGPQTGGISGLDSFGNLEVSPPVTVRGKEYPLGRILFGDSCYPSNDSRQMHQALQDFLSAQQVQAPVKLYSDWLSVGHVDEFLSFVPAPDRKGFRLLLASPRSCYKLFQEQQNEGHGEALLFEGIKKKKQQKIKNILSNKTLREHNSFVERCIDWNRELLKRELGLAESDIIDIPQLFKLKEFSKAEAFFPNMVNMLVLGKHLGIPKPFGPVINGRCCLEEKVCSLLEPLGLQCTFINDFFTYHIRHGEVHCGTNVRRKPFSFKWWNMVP

| IC50 [1] | IC50 [2] | SMILES |
| --- | --- | --- |
| 54.6 nM | – | COc1cc(C(=O)N2CCC[C@@H](N)C2)cc2nc(-c3cc4ccc([C@@H](C)NC(=O)c5ccccc5)nc4n3CC3CC3)n(C)c12 [Example 124, N-((R)-1-(2-(5-((R)-3-aminopiperidine-1-carbonyl)-7-methoxy-1-methyl-1H-benzo[d]imidazol-2-yl)-1-(cyclopropylmethyl)-1H-pyrrolo[2,3-b]pyridin-6-yl)ethyl)benzamide] |
| 423 nM | – | COc1cc(C(=O)N2C[C@H](N)CC[C@@H]2C)cc2nc(-c3cc4ccc(-c5c(C)ccnc5-c5ccccc5)nc4n3CC3CC3)n(C)c12 [Example 276, ((2S,5R)-5-amino-2-methylpiperidin-1-yl)(2-(1-(cyclopropylmethyl)-6-(4-methyl-2-phenylpyridin-3-yl)-1H-pyrrolo[2,3-b]pyridin-2-yl)-7-methoxy-1-methyl-1H-benzo[d]imidazol-5-yl)methanone] |
| 159 nM | – | COc1cc(C(=O)N2CCC[C@@H](N)C2)cc2nc(-c3cc4ccc(N5CCCCS5(=O)=O)nc4n3CC3CC3)n(C)c12 [Example 97, (R)-(3-aminopiperidin-1-yl) (2-(1-(cyclopropylmethyl)-6-(1,1-dioxido-1,2-thiazinan-2-yl)-1H-pyrrolo[2,3-b]pyridin-2-yl)-7-methoxy-1-methyl-1H-benzo[d]imidazol-5-yl)methanone] |
| 4630 nM | – | C#CC(=O)N[C@@H]1CNC[C@H]1NC(=O)c1cc(OC)c2c(c1)nc(-c1cc3ccc(N(C(F)F)S(C)(=O)=O)nc3n1CC1CC1)n2C [Example 81, 2-(1-(cyclopropylmethyl)-6-((N-(difluoromethyl)methyl)sulfonamido)-1H-pyrrolo[2,3-b]pyridin-2-yl)-7-methoxy-1-methyl-N-((3R,4R)-4-propiolamidopyrrolidin-3-yl)-1H-benzo[d]imidazole-5-carboxamide] |
| 240 nM | – | C=CC(=O)N[C@@H]1CNC[C@H]1NC(=O)c1cc(OC)c2c(c1)nc(-c1cc3ccc(N(C(F)F)S(C)(=O)=O)nc3n1CC1CC1)n2C [Example 80, N-((3R,4R)-4-acrylamidopyrrolidin-3-yl)-2-(1-(cyclopropylmethyl)-6-((N-(difluoromethyl)methyl)sulfonamido)-1H-pyrrolo[2,3-b]pyridin-2-yl)-7-methoxy-1-methyl-1H-benzo[d] imidazole-5-carboxamide] |
| – | 86.4 nM | COc1cc(C(=O)N2C[C@H](N)[C@@H]3CC[C@H]2C3)cc2nc(-c3cc4ccc([C@@H](C)NC(=O)c5ccnc(Cl)c5)nc4n3CC3CC3)n(C)c12 [Example 298, N-((R)-1-(2-(5-((1S,4R,5R)-4-amino-2-azabicyclo[3.2.1]octane-2-carbonyl)-7-methoxy-1-methyl-1H-benzo[d]imidazol-2-yl)-1-(cyclopropylmethyl)-1H-pyrrolo[2,3-b]pyridin-6-yl)ethyl)-2-chloroisonicotinamide] |
| 98.6 nM | – | CCN(c1ccc2cc(-c3nc4cc(C(=O)N5CCC[C@@H](N)[C@H]5C)cc(OC)c4n3C)n(CC3CC3)c2n1)S(C)(=O)=O [Example 28, N-(2-(5-((2R,3R)-3-amino-2-methylpiperidine-1-carbonyl)-7-methoxy-1-methyl-1H-benzo[d]imidazol-2-yl)-1-(cyclopropylmethyl)-1H-pyrrolo [2,3-b]pyridin-6-yl)-N-ethylmethanesulfonamide] |
| 87.4 nM | – | COc1cc(C(=O)N2C[C@H](N)CCN2C)cc2nc(-c3cc4ccc([C@@H](C)NC(=O)c5c(F)cc(F)cc5F)nc4n3CC3CC3)n(C)c12 [Example 157, N-((R)-1-(2-(5-((R)-5-amino-2-methylhexahydropyridazine-1-carbonyl)-7-methoxy-1-methyl-1H-benzo[d]imidazol-2-yl)-1-(cyclopropylmethyl)-1H-pyrrolo[2,3-b]pyridin-6-yl)ethyl)-2,4,6-trifluorobenzamide] |
| – | 91.8 nM | COc1cc(C(=O)N2C[C@H](N)[C@@H]3CC[C@H]2C3)cc2nc(-c3cc4ccc([C@@H](C)NC(=O)C(C)(C)F)nc4n3CC3CC3)n(C)c12 [Example 325, N-((R)-1-(2-(5-((1S,4R,5R)-4-amino-2-azabicyclo[3.2.1]octane-2-carbonyl)-7-methoxy-1-methyl-1H-benzo[d]imidazol-2-yl)-1-(cyclopropylmethyl)-1H-pyrrolo[2,3-b]pyridin-6-yl)ethyl)-2-fluoro-2-methylpropanamide] |
| 78.4 nM | – | COc1cc(C(=O)N2CCC[C@@H](N)C2)cc2nc(-c3cc4ccc([C@@H](C)NC(=O)C(C)(C)C)nc4n3CC3CC3)n(C)c12 [Example 119, N-((R)-1-(2-(5-((R)-3-aminopiperidine-1-carbonyl)-7-methoxy-1-methyl-1H-benzo[d]imidazol-2-yl)-1-(cyclopropylmethyl)-1H-pyrrolo[2,3-b]pyridin-6-yl)ethyl)pivalamide] |

The next lines start with the molecule.

| SMILES | IC50 [1] | IC50 [2] |
| --- | --- | --- |
| COc1cc(C(=O)N2CCC[C@@H](N)C2)cc2nc(-c3cc4ccc([C@@H](C)NC(=O)C56CC(F)(C5)C6)nc4n3CC3CC3)n(C3CC3)c12 [Example 125, N-((R)-1-(2-(5-((R)-3-aminopiperidine-1-carbonyl)-1-cyclopropyl-7-methoxy-1H-benzo[d]imidazol-2-yl)-1-(cyclopropylmethyl)-1H-pyrrolo[2,3-b]pyridin-6-yl)ethyl)-3-fluorobicyclo[1.1.1]pentane-1-carboxamide] | 71.3 nM | – |
| C[C@@H](NS(=O)(=O)C1CC1)c1ccc2cc(-c3nc4cc(C(=O)N5C[C@H](N)[C@@H]6CC[C@H]5C6)cc(F)c4n3C3CC3)n(CC3CC3)c2n1 [Example 232, N-((R)-1-(2-(5-((1S,4R,5R)-4-amino-2-azabicyclo[3.2.1]octane-2-carbonyl)-1-cyclopropyl-7-fluoro-1H-benzo[d]imidazol-2-yl)-1-(cyclopropyImethyl)-1H-pyrrolo[2,3-b]pyridin-6-yl)ethyl)cyclopropanesulfonamide] | – | 89.8 nM |
| COc1cc(C(=O)N2[C@@H]3CC[C@@H](N)[C@H]2CC3)cc2nc(-c3cc4ccc(N(C(C)C)S(C)(=O)=O)nc4n3CC3CC3)n(C)c12 [Example 85, N-(2-(5-((1R,2R,5R)-2-amino-8-azabicyclo[3.2.1]octane-8-carbonyl)-7-methoxy-1-methyl-1H-benzo[d]imidazol-2-yl)-1-(cyclopropylmethyl)-1H-pyrrolo [2,3-b]pyridin-6-yl)-N-isopropyl-methanesulfonamide] | 69.8 nM | – |
| COc1cc(C(=O)N2[C@H]3CC[C@@H]2[C@H](N)C3)cc2nc(-c3cc4ccc([C@@H](C)NC(=O)C56CC(F)(C5)C6)nc4n3CC3CC3)n(C3CC3)c12 [Example 130, N-((R)-1-(2-(5-((1R,2R,4S)-2-amino-7-azabicyclo[2.2.1]heptane-7-carbonyl)-1-cyclopropyl-7-methoxy-1H-benzo[d]imidazol-2-yl)-1-(cyclopropylmethyl)-1H-pyrrolo[2,3-b]pyridin-6-yl)ethyl)-3-fluorobicyclo[1.1.1]pentane-1-carboxamide] | 45.1 nM | – |
| COc1cc(C(=O)N2C[C@H](N)CCN2C)cc2nc(-c3cc4ccc([C@@H](C)NC(=O)c5ccccc5C(F)(F)F)nc4n3CC3CC3)n(C)c12 [Example 196, N-((R)-1-(2-(5-((R)-5-amino-2-methylhexahydropyridazine-1-carbonyl)-7-methoxy-1-methyl-1H-benzo[d]imidazol-2-yl)-1-(cyclopropylmethyl)-1H-pyrrolo[2,3-b]pyridin-6-yl)ethyl)-2-(trifluoromethyl)benzamide] | 129 nM | – |
| CCCS(=O)(=O)N[C@H](C)c1ccc2cc(-c3nc4cc(C(=O)N5[C@H]6CC[C@@H]5[C@H](N)C6)cc(OC)c4n3C)n(CC3CC3)c2n1 [Example 240, N—((R)-1-(2-(5-((1R,2R,4S)-2-amino-7-azabicyclo[2.2.1]heptane-7-carbonyl)-7-methoxy-1-methyl-1H-benzo[d]imidazol-2-yl)-1-(cyclopropylmethyl)-1H-pyrrolo[2,3-b]pyridin-6-yl)ethyl)propane-1-sulfonamide] | 65.6 nM | – |
| C[C@H](CN)NC(=O)c1cc2nc(-c3cc4ccc(N(C(F)F)S(C)(=O)=O)nc4n3CC3CC3)n(C)c2cc1F [Example 94, (R)-N-(1-aminopropan-2-yl)-2-(1-(cyclopropylmethyl)-6-((N-(difluoromethyl)methyl)sulfonamido)-1H-pyrrolo[2,3-b]pyridin-2-yl)-6-fluoro-1-methyl-1H-benzo[d]imidazole-5-carboxamide] | 26400 nM | – |
| C[C@@H](NC(=O)C12CC(F)(C1)C2)c1ccc2cc(-c3nc4cc(C(=O)N5C[C@H](N)[C@@H]6CC[C@H]5C6)cc(F)c4n3C3CC3)n(CC3CC3)c2n1 [Example 219, N-((R)-1-(2-(5-((1S,4R,5R)-4-amino-2-azabicyclo[3.2.1]octane-2-carbonyl)-1-cyclopropyl-7-fluoro-1H-benzo[d]imidazol-2-yl)-1-(cyclopropylmethyl)-1H-pyrrolo[2,3-b]pyridin-6-yl)ethyl)-3-fluorobicyclo[1.1.1]pentane-1-carboxamide] | – | 78.6 nM |
| COc1cc(C(=O)N2[C@H]3CC[C@@H]2[C@H](N)C3)cc2nc(-c3cc4ccc([C@@H](C)NC(=O)[C@@H]5CC5(F)F)nc4n3CC3CC3)n(C)c12 [Example 202, (S)-N-((R)-1-(2-(5-((1R,2R,4S)-2-amino-7-azabicyclo[2.2.1]heptane-7-carbonyl)-7-methoxy-1-methyl-1H-benzo[d]imidazol-2-yl)-1-(cyclopropylmethyl)-1H-pyrrolo[2,3-b]pyridin-6-yl)ethyl)-2,2-difluorocyclopropane-1-carboxamide] | 58.7 nM | – |
| COc1cc(C(=O)N2[C@H]3CC[C@@H]2[C@H](N)C3)cc2nc(-c3cc4ccc([C@@H](C)NC(=O)C5(C(F)(F)F)CC5)nc4n3CC3CC3)n(C)c12 [Example 207, N-((R)-1-(2-(5-((1R,2R,4S)-2-amino-7-azabicyclo[2.2.1]heptane-7-carbonyl)-7-methoxy-1-methyl-1H-benzo[d]imidazol-2-yl)-1-(cyclopropylmethyl)-1H-pyrrolo[2,3-b]pyridin-6-yl)ethyl)-1-(trifluoromethyl)cyclopropane-1-carboxamide] | 240 nM | – |
